For 14 compounds, EC50 and IC50 results are on record in patent publication US11401278B2, “Macrocyclic indole derivatives” (The Broad Institute, Inc., priority 2017, dated 2022).

“And” between values parts separate entries of the source, which are not always exact repeats. Equal entries are not always repeated. Structures can show the parent of a compound that is named as a salt. Where two headings read alike, the source gives them in different places.

The test system of one assay is SUDHL5. In words: Induction of caspase-3/7 activity (Assay 4), SUDHL5. The class given is cell-based. The following applies: caspase-3/7 induction, median. A digest of the protocol:
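DLBCL cells were exposed to compounds for 3 hours at 37 °C, then caspase-3/7 activation was read with Caspase-Glo 3/7 reagent. After subtracting medium-only background, EC50s were derived with fixed C0=1 and the reference compound's maximal induction as plateau.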

The next assay addresses BCL-XL (Homo sapiens (Human), UniProt Q07817). In words: Protein-protein interaction assay BCL-XL/Bad BH3 peptide (BCL-XL assay, TR-FRET). The assay is classed as binding. The settings on record: His-BCL-XL / Bad BH3 peptide, median. The procedure, abridged: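 His-tagged human BCL-XL (aa 1-212, 1 nM final) was preincubated 10 min at 22 °C with compound (11 concentrations, 0.1 nM–20 μM), then biotinylated Bad BH3 peptide (1 nM) and TR-FRET reagents were added. Incubation: 1 h at 22 °C, then overnight at 4 °C, pH 7 Tris buffer. IC50 from 4-parameter fit of 665/620 ratio.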
A general note: Time-resolved FRET reads energy transfer from a long-lived donor to a nearby acceptor.

The next assay relates to HMC-1-8. In words: Antiproliferation assay (Assay 7), HMC-1-8. The assay is classed as cell-based. The settings on record: CellTiter-Glo, several values per example, read-out: Antiproli HMC-1-8 [M] IC50. The procedure, abridged:
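Proliferation was read by CellTiter-Glo luminescence after 72 hours of compound treatment at 37° C. The read was referenced to a parallel plate measured at time zero.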

Chain of BCL-XL (Q07817 other isoform, or with tags, fused parts or gaps): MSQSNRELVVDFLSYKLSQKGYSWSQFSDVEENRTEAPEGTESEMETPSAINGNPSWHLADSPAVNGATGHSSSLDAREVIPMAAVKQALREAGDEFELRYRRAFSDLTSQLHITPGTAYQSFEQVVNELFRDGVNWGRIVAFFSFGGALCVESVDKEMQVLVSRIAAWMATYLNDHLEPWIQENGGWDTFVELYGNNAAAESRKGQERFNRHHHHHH

In the case of `Cc1c2c(nn1C)C(CCN1CCOCC1)N(C)S(=O)(=O)CCCn1c(C(=O)O)c(CCCOc3cccc4ccccc34)c3cccc-2c31` (single isomer, unassigned; enantiomer 2) [Example 46, 2,3,14-trimethyl-15-[2-(morpholin-4-yl)ethyl]-7-{3-[(naphthalen-1-yl)oxy]propyl}-13,13-dioxo-10,11,12,13,14,15-hexahydro-2H-13lambda^6-pyrazolo[3′,4′:4,5][1,2,8]thiadiazacycloundecino[6,7,8-hi]indole-8-carboxylic acid N-ethylethanamine Salt (Enantiomer 2)], the half-maximal effective concentration (EC50) (commonly the concentration at which the effect is half-maximal) in the assay on SUDHL5 (3 hours) stood at 390 nM. Moreover, the IC50 (commonly the concentration at which inhibition is half-maximal) at BCL-XL is greater than 20000 nM; with HMC-1-8 (72 hours), 9.4e-06 M and 1.2e-05 M.
On to `COc1ccc(CN2Cc3nn(C)c(C)c3-c3c(Cl)ccc4c(CCCOc5cccc6cc(F)ccc56)c(C(=O)O)n(c34)CCCS2(=O)=O)c(OC)c1` (racemic) [Example 49, (rac)-4-chloro-14-(2,4-dimethoxybenzyl)-7-{3-[(6-fluoro-1-naphthyl)oxy]propyl}-2,3-dimethyl-11,12,14,15-tetrahydro-2H,10H-pyrazolo[3′,4′:4,5][1,2,8]thiadiazacycloundecino[6,7,8-hi]indole-8-carboxylic acid 13,13-dioxide], for which a half-maximal response in the assay with SUDHL5 (Homo sapiens, SU-DHL-5, 3 h) (EC50) required 210 nM. Further, the results for the IC50 on BCL-XL, in the assay on HMC-1-8 (72 h) and in the assay with HMC-1-8 (72 hours) were greater than 20000 nM, 7.8e-06 M and 5.8e-06 M, respectively.
Regarding `CCc1c2c(nn1C)C(CCN1CCOCC1)N(C)S(=O)(=O)CCCn1c(C(=O)O)c(CCCOc3cccc4cc(F)ccc34)c3ccc(Cl)c-2c31` (racemic) [Example 73, (rac)-(4-chloro-3-ethyl-7-{3-[(6-fluoronaphthalen-1-yl)oxy]propyl}-2,14-dimethyl-15-[2-(morpholin-4-yl)ethyl]-13,13-dioxo-10,11,12,13,14,15-hexahydro-2H-13lambda^6-pyrazolo[3′,4′:4,5][1,2,8]thiadiazacycloundecino[6,7,8-hi]indole-8-carboxylic acid (Racemate 1)], a half-maximal effect on SUDHL5 (3 hours) (EC50) was put at 23 nM. In addition, in the assay on HMC-1-8 (72 hours), the concentration for half-maximal inhibition (IC50) worked out at 1e-06 M.
Turning to `CCc1c2c(nn1C)CN(CC)S(=O)(=O)CCCn1c(C(=O)O)c(CCCOc3cccc4cc(F)ccc34)c3ccc(Cl)c-2c31` (single isomer, unassigned; enantiomer 1) [Example 57, (+)-4-chloro-3,14-diethyl-7-{3-[(6-fluoronaphthalen-1-yl)oxy]propyl}-2-methyl-13,13-dioxo-10,11,12,13,14,15-hexahydro-2H-13lambda^6-pyrazolo[3′,4′:4,5][1,2,8]thiadiazacycloundecino[6,7,8-hi]indole-8-carboxylic acid N-ethylethanamine Salt (Enantiomer 1)], a half-maximal response with SUDHL5 (3 hours) (EC50) required 120 nM. In the assay with HMC-1-8 (72 hours), the IC50 is 9.1e-07 M and 1.3e-06 M.
Consider `CCc1c2c(nn1C)CN(C1CC1)S(=O)(=O)CCCn1c(C(=O)O)c(CCCOc3cccc4cc(F)ccc34)c3ccc(Cl)c-2c31` (single isomer, unassigned; enantiomer 1) [Example 54, (−)-4-chloro-14-cyclopropyl-3-ethyl-7-{3-[(6-fluoronaphthalen-1-yl)oxy]propyl}-2-methyl-13,13-dioxo-10,11,12,13,14,15-hexahydro-2H-13lambda^6-pyrazolo[3′,4′:4,5][1,2,8]thiadiazacycloundecino[6,7,8-hi]indole-8-carboxylic acid N-ethylethanamine Salt (Enantiomer 1)], for which it took 260 nM to reach a half-maximal effect in the assay on SUDHL5 (3 hours) (EC50). The IC50 in the assay on HMC-1-8 (72 hours) was 2.2e-06 M and 2.5e-06 M.
For `CCc1c2c(nn1C)C(CCC1CCOCC1)N(C)S(=O)(=O)CCCn1c(C(=O)O)c(CCCOc3cccc4cc(F)ccc34)c3ccc(Cl)c-2c31` (racemic) [Example 60, (rac)-4-chloro-3-ethyl-7-{3-[(6-fluoro-1-naphthyl)oxy]propyl}-2,14-dimethyl-15-[2-(tetrahydro-2H-pyran-4-yl)ethyl]-11,12,14,15-tetrahydro-2H,10H-pyrazolo[3′,4′:4,5][1,2,8]thiadiazacycloundecino[6,7,8-hi]indole-8-carboxylic acid 13,13-dioxide (Racemate 1)], the half-maximal effective concentration (EC50) in the assay with SUDHL5 (3 hours) is 18 nM. For the same compound, the IC50 was greater than 20000 nM on BCL-XL and 1.9e-07 M in the assay with HMC-1-8 (72 hours).
The compound `Cc1c2c(nn1C)C(CCN1CCOCC1)N(C)S(=O)(=O)CCCn1c(C(=O)O)c(CCCOc3cccc4ccccc34)c3cccc-2c31` (single isomer, unassigned; enantiomer 1) [Example 45, 2,3,14-trimethyl-15-[2-(morpholin-4-yl)ethyl]-7-{3-[(naphthalen-1-yl)oxy]propyl}-13,13-dioxo-10,11,12,13,14,15-hexahydro-2H-13lambda^6-pyrazolo[3′,4′:4,5][1,2,8]thiadiazacycloundecino[6,7,8-hi]indole-8-carboxylic acid N-ethylethanamine Salt (Enantiomer 1)] yielded an EC50 in the assay on SUDHL5 (3 hours) of 27000 nM. Also, the figures for the IC50 at BCL-XL and with HMC-1-8 (72 hours) were 18000 nM and greater than 3.3e-05 M, respectively.
The corresponding values for `CCc1c2c(nn1C)C(CCC1CCOCC1)N(C)S(=O)(=O)CCCn1c(C(=O)O)c(CCCOc3cccc4cc(F)ccc34)c3ccc(Cl)c-2c31` (single isomer, unassigned; enantiomer 2) [Example 62, (−)-4-chloro-3-ethyl-7-{3-[(6-fluoronaphthalen-1-yl)oxy]propyl}-2,14-dimethyl-15-[2-(oxan-4-yl)ethyl]-13,13-dioxo-10,11,12,13,14,15-hexahydro-2H-13lambda^6-pyrazolo[3′,4′:4,5][1,2,8]thiadiazacycloundecino[6,7,8-hi]indole-8-carboxylic acid (Enantiomer 2)] are 4100 nM, 18000 nM and 2.1e-05 M.
In the assay with SUDHL5 (Homo sapiens, SU-DHL-5, 3 h), `Cc1c2c(nn1C)CNS(=O)(=O)CCCn1c(C(=O)O)c(CCCOc3cccc4cc(F)ccc34)c3ccc(Cl)c-2c31` (racemic) [Example 50, (rac)-4-chloro-7-{3-[(6-fluoro-1-naphthyl)oxy]propyl}-2,3-dimethyl-11,12,14,15-tetrahydro-2H,10H-pyrazolo[3′,4′:4,5][1,2,8]thiadiazacycloundecino[6,7,8-hi]indole-8-carboxylic acid 13,13-dioxide] returned an EC50 of 650 nM. For the same compound, the 50% inhibitory concentration (IC50) against BCL-XL is greater than 20000 nM; with HMC-1-8 (72 h), 3e-05 M.
For `CCc1c2c(nn1C)CN(C)S(=O)(=O)CCCn1c(C(=O)O)c(CCCOc3cccc4cc(F)ccc34)c3ccc(Cl)c-2c31` (single isomer, unassigned; enantiomer 1) [Example 36, (+)-4-chloro-3-ethyl-7-{3-[(6-fluoronaphthalen-1-yl)oxy]propyl}-2,14-dimethyl-13,13-dioxo-10,11,12,13,14,15-hexahydro-2H-13lambda^6-pyrazolo[3′,4′:4,5][1,2,8]thiadiazacycloundecino-[6,7,8-hi]indole-8-carboxylic acid (Enantiomer 1)], the 50% effective concentration (EC50) in the assay on SUDHL5 (3 hours) is 85 nM. Moreover, the concentration for half-maximal inhibition (IC50) on BCL-XL is greater than 20000 nM; with HMC-1-8 (72 hours), 1.7e-06 M and 1.9e-06 M.
`Cc1c2c(nn1C)C(CCN1CCOCC1)N(C)S(=O)(=O)CCCn1c(C(=O)O)c(CCCOc3cccc4cc(F)ccc34)c3ccc(Cl)c-2c31` (racemic) [Example 48, (rac)-4-chloro-7-{3-[(6-fluoro-1-naphthyl)oxy]propyl}-2,3,14-trimethyl-15-(rac)-[2-(morpholin-4-yl)ethyl]-11,12,14,15-tetrahydro-2H,10H-pyrazolo[3′,4′:4,5][1,2,8]thiadiazacycloundecino[6,7,8-hi]indole-8-carboxylic acid 13,13-dioxide (Mixture of Stereoisomers)]: the 50% effective concentration (EC50) in the assay on SUDHL5 (3 hours) is 13 nM. Also, the IC50 was greater than 20000 nM against BCL-XL; 9.8e-07 M and 9.3e-07 M in the assay with HMC-1-8 (72 hours).
In turn, `Cc1c2c(nn1C)C(CCN1CCOCC1)N(C)S(=O)(=O)CCCn1c(C(=O)O)c(CCCOc3cccc4cc(F)ccc34)c3ccc(Cl)c-2c31` (racemic) [Example 65, (rac)-4-chloro-7-{3-[(6-fluoronaphthalen-1-yl)oxy]propyl}-2,3,14-trimethyl-15-(rac)-[2-(morpholin-4-yl)ethyl]-13,13-dioxo-10,11,12,13,14,15-hexahydro-2H-13lambda^6-pyrazolo[3′,4′:4,5][1,2,8]thiadiazacycloundecino[6,7,8-hi]indole-8-carboxylic acid (Mixture of Stereoisomers)] came in with an EC50 with SUDHL5 (3 hours) of 47 nM. The half-maximal inhibitory concentration (IC50) against BCL-XL was greater than 20000 nM; in the assay with HMC-1-8 (72 h), 1.5e-06 M.
Take `CCc1c2c(nn1C)CN(C1CC1)S(=O)(=O)CCCn1c(C(=O)O)c(CCCOc3cccc4cc(F)ccc34)c3ccc(Cl)c-2c31` (racemic) [Example 53, (rac)-4-chloro-14-cyclopropyl-3-ethyl-7-{3-[(6-fluoro-1-naphthyl)oxy]propyl}-2-methyl-11,12,14,15-tetrahydro-2H,10H-pyrazolo[3′,4′:4,5][1,2,8]thiadiazacycloundecino[6,7,8-hi]indole-8-carboxylic acid 13,13-dioxide]: the EC50 in the assay with SUDHL5 (3 hours) came out at 550 nM. Also, the IC50 is 16000 nM against BCL-XL; 5e-06 M and 6.4e-06 M and 7.7e-06 M in the assay with HMC-1-8 (72 hours).
For `CCNCC.CCc1c2c(nn1C)C(CCN1CCOCC1)N(C)S(=O)(=O)CCCn1c(C(=O)O)c(CCCOc3cccc4cc(F)ccc34)c3ccc(Cl)c-2c31` (single isomer, unassigned; enantiomer 2) [Example 76, 4-chloro-3-ethyl-7-{3-[(6-fluoronaphthalen-1-yl)oxy]propyl}-2,14-dimethyl-15-[2-(morpholin-4-yl)ethyl]-13,13-dioxo-10,11,12,13,14,15-hexahydro-2H-13lambda^6-pyrazolo[3′,4′:4,5][1,2,8]thiadiazacycloundecino[6,7,8-hi]indole-8-carboxylic acid-N-ethylethanamine Salt (Enantiomer 2)], the EC50 at SUDHL5 (3 hours) amounted to 6.5 nM. The IC50 in the assay on HMC-1-8 (72 hours) was 3.5e-07 M and 4.1e-07 M.
